Source: patent US11327083B2, “Treatment and differential diagnosis of Cushing's disease and ectopic Cushing's syndrome” (Corcept Therapeutics, Inc., priority 2016, dated 2022)

Legend:
[1] = test system: patients having Ectopic Cushing's Syndrome; experiment: Mean plasma cortisol to ACTH (C:A) ratio during mifepristone treatment, patients having Ectopic Cushing's Syndrome; assay type: in vivo, human
Description: (§1) Two groups of patients, which have been previously diagnosed as having Cushing's Disease, Ectopic Cushing's Syndrome using other methods, were enrolled in the study. The investigators were blind to the patients' diagnoses. Blood samples were obtained from each patient within 6 weeks prior to the enrollment in the study (“Day 1” samples). The patients were treated with mifepristone at a starting dose 300 mg daily, increased up to 1200 mg or 20 mg/kg over a period of 10 weeks. The mifepristone treatment continued for a total period of 24 weeks. Blood samples were taken during the course of the treatment, i.e., at the end of 14 days, and 6, 10, 16 and 24 weeks from the initial dose of mifepristone was given. All samples were taken at between 8-10 am on the day of the study. The ACTH levels and the cortisol levels of the plasma produced from the blood samples collected above were assayed using two-site immunometric assays (Mayo Clinic, Test ID ACTH) following the manufacturer's instructions.

[2] = test system: patients having Cushing's Disease; experiment: Mean plasma cortisol to ACTH (C:A) ratio during mifepristone treatment, patients having Cushing's Disease; assay type: in vivo, human
Description: as §1

[3] = Ectopic patients (n = 3), plasma, 8-10 am, mifepristone 300 mg daily increased up to 1200 mg or 20 mg/kg, Day 1 baseline mean 18.552
[4] = CD patients (n = 38), plasma, 8-10 am, mifepristone 300 mg daily increased up to 1200 mg or 20 mg/kg, Day 1 baseline mean 3.018

CC#C[C@]1(O)CC[C@H]2[C@@H]3CCC4=CC(=O)CCC4=C3[C@@H](c3ccc(N(C)C)cc3)C[C@@]21C [mifepristone, 17-β-hydrox-11-β-(4-dimethyl-aminophenyl)17-α-(1-propynyl)estra-4,9-dien-3-one]
mean GRA-exposed C:A ratio as % of the baseline ratio ([1]; Ectopic Cushing's Syndrome patients, end of 24 weeks treatment): 11.6% | mean GRA-exposed C:A ratio as % of the mean baseline ratio ([1]; Ectopic Cushing's Syndrome patients, end of the six weeks' treatment): less than 50% | mean ratio of cortisol to ACTH, Week 6 [1, 3]: 9.241 | mean ratio of cortisol to ACTH, Week 10 [1, 3]: 6.722 | mean ratio of cortisol to ACTH, Week 16 [1, 3]: 0.600 | mean ratio of cortisol to ACTH, Week 24/ET [1, 3]: 2.154 | mean ratio of cortisol to ACTH, Week 16 ([2]; CD patients (n = 32), plasma, 8-10 am, mifepristone 300 mg daily increased up to 1200 mg or 20 mg/kg, Day 1 baseline mean 3.018): 5.788 | mean ratio of cortisol to ACTH, Week 10 ([2]; CD patients (n = 33), plasma, 8-10 am, mifepristone 300 mg daily increased up to 1200 mg or 20 mg/kg, Day 1 baseline mean 3.018): 6.852 | mean ratio of cortisol to ACTH, Week 6 [2, 4]: 3.396 | mean ratio of cortisol to ACTH, Week 24/ET [2, 4]: 4.999 | mean GRA-exposed C:A ratio relative to the mean baseline C:A ratio (peak) ([2]; Cushing's Disease patients, peak at the end of 10 weeks of mifepristone treatment): more than 2 fold
